How the values were obtained:
[1] = test system: apoE knockout mice (apoE-KO mice); conditions: inhalation of gas mixture with approximately 2% hydrogen gas
Text: (§1) The size of this container was as follows: W: 550 mm; L: 400 mm; and H: 300 mm.
(§2) Then, effects on body fat and the liver were examined. 9-week-old male apoE-KO mice were placed in cages (4 mice each). One group was designated as a control group and normal air was supplied thereto.

[2] = test system: apoE knockout mice (apoE-KO mice); conditions: 11 weeks after hydrogen administration, approximately 2% hydrogen gas inhalation
Text: as §1, §2
11 weeks after hydrogen administration, the mice were subjected to measurement of muscle force. Upon measurement, each mouse was allowed to hold a mesh wire of the ceiling and the time period until it fell from the ceiling was determined.

[3] = test system: apoE knockout mice (apoE-KO mice); conditions: approximately 2% hydrogen gas inhalation, vs control group
Description: as §1, §2
Next, each mouse was analyzed with an X-ray CT for laboratory animals (LaTheta LCT-100A, Aloka Co., Ltd.). General anesthesia induction was carried out by supplying an anesthetic gas mixture (oxygen: 0.3 L/min; nitrous-oxide gas: 0.7 L/min; Sevofrane: 3% (Maruishi Pharmaceutical Co., Ltd.)) to each mouse with the use of a general anesthesia apparatus for small animals (Soft Lander, NeuroScience, Inc). CT scanning was carried out under anesthesia so as to obtain whole-body images (FIG. 9, upper images). Then, fat regions were determined based on CT values so as to specify subcutaneous fat and visceral fat (FIG. 9, lower images). Each cross-sectional area was multiplied by the thickness so as to obtain the volume, followed by estimation of the fat and muscle weights. […] In addition, fat percentages were obtained by the following equation.
Fat percentage (%)=fat [visceral fat+subcutaneous fat]/(fat [visceral fat+subcutaneous fat]+muscle)×100

[4] = test system: apoE knockout mice (apoE-KO mice); experiment: Serum items, organ weights and fat accumulated in the liver 12 weeks after hydrogen gas inhalation; type: in vivo, mouse; conditions: 12 weeks hydrogen gas inhalation, vs control group
Description: The amounts of the following items in serum were measured: total cholesterol, LDL cholesterol, HDL cholesterol, neutral fat, AST, ALT, creatinine kinase, total protein, lactate dehydrogenase, urea nitrogen, total bilirubin, creatinine, alkaline phosphatase, choline esterase, and albumine. […] Each liver was fixed with 4% paraformaldehyde overnight, followed by dehydration with sucrose. Thereafter, frozen sections were prepared and stained with Oil-Red O. Then, the amount of lipids accumulated in the liver was calculated (FIG. 13A, images). The stained portions indicate fat accumulation.

[5] = hydrogen pressure of 1 atmosphere, room temperature; cited from earlier work

## [HH] [hydrogen gas]
[1]
  weight increases vs control group: significantly suppressed
[2]
  muscle force: time period until mouse fell from mesh wire of the ceiling: significantly long time
[3]
  amount of subcutaneous fat (CT): significantly decreased
  amount of total fat (CT): significantly decreased
  amount of visceral fat (CT): significantly decreased
  fat percentage (fat/(fat+muscle) x100, CT): more significantly decreased
[4]
  kidney weight: significantly decreased
  liver weight: significantly decreased
  serum ALT: no difference was observed
  serum AST: no difference was observed
  serum HDL cholesterol: no difference was observed
  serum LDL cholesterol: no difference was observed
  serum albumine: no difference was observed
  serum alkaline phosphatase: no difference was observed
  serum choline esterase: no difference was observed
  serum creatinine: no difference was observed
  serum creatinine kinase: no difference was observed
  serum lactate dehydrogenase: no difference was observed
  serum neutral fat: no difference was observed
  serum total bilirubin: no difference was observed
  serum total cholesterol: no difference was observed
  serum total protein: no difference was observed
  serum urea nitrogen: no difference was observed
[5]
  hydrogen dissolved in 1 L of water: approximately 17.5 mL

Source: patent publication US20090246290A1, “Lipid metabolism improving agent containing hydrogen molecules” (priority 2006, published 2009)
